Measured values from PMC7075651 (Journal of Medicinal Chemistry, 2018).
Where two headings read alike, the source gives them in different places. Where a SMILES comes first, the peptide text is derived from it. [ ]: non-standard residue; d: D form. The star is where a group is joined. Palmitoyl = CCCCCCCCCCCCCCCC(=O)*; βAla = NCCC(=O)O

What was measured:
IAV polymerase = assay: cells; format: cell-based, influenza A virus; conditions: read-out: IC50, influenza replicon activity
[1] = target: HA1 subunit sialic acid-binding site (Influenza A virus, UniProt P03452); set-up: species or system influenza A/Puerto Rico/8/34 virus
TZM-b1 cell = conditions: human, TZM-b1 cells
HA2 subunit = HA2 subunit (Influenza A virus, UniProt P03452); set-up: species or system H1/PR8 virus; conditions: pH 4.6
N66 = N66 (Influenza A virus, UniProt P03437); format: binding, IAV H3 (X31); conditions: pH 8.8
IAV = format: cell-based, influenza A virus
in vivo = conditions: male, Sprague-Dawley, rat, iv, 5 mg/kg
[2] = target: neuraminidase from influenza A/Puerto Rico/8/1934 (H1N1) (Influenza A virus, UniProt P03468); format: biochemical
[3] = target: neuraminidase from influenza A/Hong Kong/8/68 (H3N2) (Influenza A virus, UniProt Q91MA2); format: biochemical
MERS-CoV pseudovirus = conditions: 12 h

Chain of neuraminidase from influenza A/Puerto Rico/8/1934 (H1N1) (P03468 whole entry, looked up): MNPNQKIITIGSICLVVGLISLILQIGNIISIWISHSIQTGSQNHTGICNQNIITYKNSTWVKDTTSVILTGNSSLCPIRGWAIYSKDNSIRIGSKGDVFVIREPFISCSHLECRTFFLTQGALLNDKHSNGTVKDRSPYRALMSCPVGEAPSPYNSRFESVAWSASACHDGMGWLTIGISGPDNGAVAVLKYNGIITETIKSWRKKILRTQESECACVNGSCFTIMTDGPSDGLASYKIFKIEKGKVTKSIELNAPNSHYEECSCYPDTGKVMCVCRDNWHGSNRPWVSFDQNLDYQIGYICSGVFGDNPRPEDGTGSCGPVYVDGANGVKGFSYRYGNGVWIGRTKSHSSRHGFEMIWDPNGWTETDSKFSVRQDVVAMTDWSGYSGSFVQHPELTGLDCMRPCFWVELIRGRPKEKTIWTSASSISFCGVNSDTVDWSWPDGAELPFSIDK
Chain of neuraminidase from influenza A/Hong Kong/8/68 (H3N2) (Q91MA2 whole entry, looked up): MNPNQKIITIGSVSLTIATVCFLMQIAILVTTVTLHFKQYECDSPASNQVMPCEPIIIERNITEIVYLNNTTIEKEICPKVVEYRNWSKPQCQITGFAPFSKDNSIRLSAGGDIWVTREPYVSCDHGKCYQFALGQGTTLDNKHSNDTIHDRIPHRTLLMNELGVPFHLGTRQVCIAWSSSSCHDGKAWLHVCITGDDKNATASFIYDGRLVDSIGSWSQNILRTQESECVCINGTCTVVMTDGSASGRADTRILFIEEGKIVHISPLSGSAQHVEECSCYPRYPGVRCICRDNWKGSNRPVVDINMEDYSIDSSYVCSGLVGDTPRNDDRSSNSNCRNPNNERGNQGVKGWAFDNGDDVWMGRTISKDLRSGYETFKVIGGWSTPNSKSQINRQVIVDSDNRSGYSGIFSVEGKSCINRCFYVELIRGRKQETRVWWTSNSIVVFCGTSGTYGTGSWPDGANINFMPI
Chain of HA1 subunit sialic acid-binding site (P03452 18-343 limits assumed): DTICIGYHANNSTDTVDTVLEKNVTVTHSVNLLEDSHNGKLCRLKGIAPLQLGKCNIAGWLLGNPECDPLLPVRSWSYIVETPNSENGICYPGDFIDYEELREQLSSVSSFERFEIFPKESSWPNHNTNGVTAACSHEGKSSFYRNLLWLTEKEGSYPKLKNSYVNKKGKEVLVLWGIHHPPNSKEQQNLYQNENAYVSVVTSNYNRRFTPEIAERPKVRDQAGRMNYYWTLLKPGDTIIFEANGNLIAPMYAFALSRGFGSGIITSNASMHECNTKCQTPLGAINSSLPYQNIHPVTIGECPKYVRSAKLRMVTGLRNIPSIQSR
Chain of HA1 subunit sialic acid-binding site (P03452 345-565 limits assumed): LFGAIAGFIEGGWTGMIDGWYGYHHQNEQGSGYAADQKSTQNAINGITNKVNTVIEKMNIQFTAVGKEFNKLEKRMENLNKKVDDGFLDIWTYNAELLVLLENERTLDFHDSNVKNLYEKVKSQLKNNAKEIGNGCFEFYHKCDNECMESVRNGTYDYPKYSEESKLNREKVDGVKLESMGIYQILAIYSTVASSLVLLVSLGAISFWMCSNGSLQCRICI
Chain of HA2 subunit (P03452 18-343 limits assumed): as the sequence (P03452 18-343 limits assumed) above
Chain of HA2 subunit (P03452 345-565 limits assumed): as the sequence (P03452 345-565 limits assumed) above
Chain of N66 (P03437 385-450 limits assumed): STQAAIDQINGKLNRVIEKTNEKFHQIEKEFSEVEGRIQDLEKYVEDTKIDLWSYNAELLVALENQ

CCOC(=O)C1=C[C@@H](OC(CC)CC)[C@H](NC(C)=O)[C@@H](N)C1 [oseltamivir, reference compound]
CC50, cytotoxicity of compounds on MDCK cells (MDCK cells): >100 µM | IC50 (IAV polymerase; Influenza A virus, HEK-293T, 30 h): > 100 µM

CCCCCCCCCCCCCCCC(=O)NCCCC[C@H](NC(=O)CCNC(=O)[C@H](CCCCN)NC(=O)[C@H](CCCCN)NC(=O)[C@H](CCC(N)=O)NC(=O)[C@@H](NC(=O)[C@H](CCC(=O)O)NC(=O)[C@H](CCC(=O)O)NC(=O)[C@@H](NC(=O)[C@H](CCCCN)NC(=O)[C@H](CCCCN)NC(=O)[C@H](CCC(N)=O)NC(=O)[C@@H](NC(=O)[C@H](CCC(=O)O)NC(=O)[C@H](CCC(=O)O)NC(=O)[C@@H](NC(=O)[C@H](CCCCN)NC(=O)[C@H](CCCCN)NC(=O)[C@H](CCC(N)=O)NC(=O)[C@@H](NC(=O)[C@H](CCC(=O)O)NC(=O)[C@H](CCC(=O)O)NC(=O)[C@@H](NC(=O)[C@H](CCCCN)NC(=O)[C@H](CCCCN)NC(=O)[C@H](CCC(N)=O)NC(=O)[C@@H](NC(=O)[C@H](CCC(=O)O)NC(=O)[C@H](CCC(=O)O)NC(=O)[C@@H](NC(=O)[C@H](CCCCN)NC(=O)[C@H](CCCCN)NC(=O)[C@H](CCC(N)=O)NC(=O)[C@@H](NC(=O)[C@H](CCC(=O)O)NC(=O)[C@H](CCC(=O)O)NC(=O)[C@@H](NC(C)=O)[C@@H](C)CC)[C@@H](C)CC)[C@@H](C)CC)[C@@H](C)CC)[C@@H](C)CC)[C@@H](C)CC)[C@@H](C)CC)[C@@H](C)CC)[C@@H](C)CC)[C@@H](C)CC)C(N)=O [IIQ] (Ac-IEEIQKKIEEIQKKIEEIQKKIEEIQKKIEEIQKK[βAla]K(Palmitoyl)-NH2)
inhibition of influenza virus-induced aggregation of chicken erythrocytes [1]: no apparent inhibition | CC50, cytotoxicity of compounds on MDCK cells (MDCK cells; dog, MDCK cells, 72 h): >100 µM | CC50 on the TZM-b1 cell (TZM-b1 cell): > 100 µM | lysis of erythrocytes caused by HA2 under acidic condition (HA2 subunit): decreased compared with the hemolytic effect of virus only | N-PAGE of equimolar mixture with N66 (N66): new bands at the upper positions in the gel | antiviral activity in the remaining three time intervals (IAV): no antiviral activity | reduction of viral load, interval 0–10 h (IAV): approximately 60% | level at 24 h (in vivo): > 100 ng/mL | IC50 (IAV polymerase): > 100 µM | inhibition of neuraminidase of A/Puerto Rico/8/34 (H1N1), in words [2]: neither IIQ nor favipiravir was able to disturb cleavage of the substrate | inhibition of neuraminidase of A/Hong Kong/8/68 (H3N2), in words [3]: neither IIQ nor favipiravir was able to disturb cleavage of the substrate | EC50 (MERS-CoV pseudovirus): 0.13 µM

NC(=O)c1nc(F)cnc1O [favipiravir, reference compound]
antiviral effect at the interval of 5–8 h (IAV): continued to exert its full effect | inhibition of neuraminidase of A/Puerto Rico/8/34 (H1N1), in words [2]: neither IIQ nor favipiravir was able to disturb cleavage of the substrate | inhibition of neuraminidase of A/Hong Kong/8/68 (H3N2), in words [3]: neither IIQ nor favipiravir was able to disturb cleavage of the substrate
